Results published in patent US20120040920A1, “OLIGOSACCHARIDE ALDONIC ACIDS AND THEIR TOPICAL USE” (priority 1999, published 2012).

Legend:
[1] = system: contact dermatitis or erythema; assay: topical treatment of facial erythema caused by glycolic acid cream; type: in vivo, human; conditions: 5% partially neutralized cream, three applications over 24 hour period, person; control side persisted
Text: A subject, developed contact dermatitis or erythema on their face after topical applications of 20% unneutralized glycolic acid cream. They applied 5% partially neutralized lactobionic acid cream on the left side of their face and a control cream on the right side of their face.

[2] = gel matrix formation on evaporation of an aqueous solution at room temperature; type: physicochemical
Text: In contrast to an alpha hydroxyacid and polyhydroxyacid, an oligosaccharide aldonic acid can form a gel matrix when its aqueous solution is evaporated at room temperature. The transparent gel obtained retains certain amount of water forming a clear gel matrix. The amount of water retention depends on individual oligosaccharide aldonic acid. Examples of gel matrix preparations are provided below.
In one example, a gel matrix can be formed when aqueous solution comprising an oligosaccharide aldonic acid is evaporated at room temperature. The transparent gel thus obtained retains certain amount of water forming a clear gel matrix. The amount of water retention depends on individual oligosaccharide aldonic acid. For example, maltobionic acid 1 g in a beaker was dissolved in water 1 ml, and the solution thus obtained was left at room temperature. Fifty percent of the original water had been evaporated at the end of 24 hours, and 57% at the end of 48 hours, and 60% at the end of 72 hours, and no more or minimal evaporation of water could be detected after 72 hours. A clear gel film thus obtained contained 29% water complexed with maltobionic acid molecules. In the same manner, lactobionic acid formed a clear gel matrix with 14% water molecules and cellobionic acid formed a transparent gel with 7% water molecules.
A typical experiment to determine a gel matrix formation of an oligosaccharide aldonic acid may be carried out as follows.
Maltobionic acid 1 g in a beaker of 3.6 cm diameter and 3.6 cm height was dissolved in water 1 ml, and the solution thus obtained was left at room temperature between 20-25° C. to allow a slow evaporation of the water. […] The continuous transparent film thus obtained consisted of 71% maltobionic acid and 29% water by weight, and was formed as a complex gel matrix between maltobionic acid molecules and water molecules.

[3] = system: chronic gum disease of bleeding; assay: oral gurgling treatment of chronic gum disease; type: in vivo, human; conditions: 5% in molecular complex with 1% L-arginine, pH 3.3, gurgling twice daily, one week, person
Method: Lactobionic acid 50% aqueous solution 10 g was diluted with 60 ml water and 10 ml propylene glycol, and the solution had pH 2.1. L-Arginine 5% solution 20 g prepared from 8 parts water and 2 parts propylene glycol by volume was added to form molecular complex of amphoteric system as shown by the increase of pH to 3.3. The composition thus formulated contained 5% lactobionic acid in molecular complex with 1% L-arginine.
A subject, having chronic gum disease of bleeding during the tooth brushing, used the above bionic acid complex composition twice daily as a gurgling solution with at least one minute of contact time in oral cavity. No food or drink was taken for the next 30 minutes.

[4] = antioxidant property, hydroquinone test method; type: physicochemical; conditions: oil-in-water cream, 2% hydroquinone, test substance 0.4 M, room temperature, 5 days
Text: (§1) An antioxidant may be defined as a substance capable of preventing or inhibiting oxidation. […] The antioxidant property is readily determined by using any one of the following test methods: prevention or retardation of air oxidation of (a) anthralin, (b) hydroquinone, or (c) banana peel. A freshly prepared anthralin solution or cream is bright yellow, and an air oxidized one is brownish or black. A hydroquinone solution or cream is colorless or white color, and an air oxidized one is brownish or black. A freshly peeled banana peel is light yellow in color and an oxidized one ranges in color from tan, dark tan, brown to brownish black.
Antioxidant property of an oligosaccharide aldonic acid may also be determined by utilizing hydroquinone test method as follows. Hydroquinone also known as 1,4-dihydroxybenzene is a white powder, and a composition containing hydroquinone without a suitable antioxidant is chemically unstable even at room temperature. For example, hydroquinone 2% in an oil-in-water cream changed in color from white to grey within 2 hours, and the cream became light brown within 48 hours and dark brown after 72 hours at room temperature.

[5] = system: circular wounds 0.5 mm in depth; assay: healing of circular 4 mm biopsy punch wounds on forearm; type: in vivo, human; conditions: 2% in distilled water
Text: A sterile 4 mm skin biopsy punch was used to make two circular wounds 0.5 mm in depth on alcohol-swabbed left forearm of a healthy subject. The wounds were swabbed dry with cotton balls. A control solution containing 0.9% sodium chloride in distilled water was applied to one circular wound, and a test solution containing 2% lactobionic acid in distilled water was applied to the other circular wound. Both wounds were covered with 3M Tegaderm tapes for five days. […] The erythema disappeared from both skin sites at the end of nine days.

[6] = antioxidant property, banana peel test method; conditions: for colour of banana peels: 1×2 cm peels in 5 ml 0.1 M solution, room temperature
Text: as §1
For example, in control experiments, fresh banana peels cut into sizes of 1×2 cm in 50 mm plastic petri dishes containing 5 ml water at neutral or acidic pH changed in color from white-yellowish to tan within 6 hours at room temperature, and changed to dark tan color during the next period of 24 to 72 hours.
Antioxidant property of an oligosaccharide aldonic acid may also be determined by utilizing banana peel test method as follows.
A fresh ripe banana peel cut into sizes of 2×2 cm has the outer layer light yellow in color. These freshly cut banana peels after exposed to air or immersed in an aqueous solution without an antioxidant in 50 mm plastic petri dishes rapidly changed in color from yellowish to tan within 3 hours, dark tan within 24 hours and brown black after 72 hours. A test substance including a positive control such as vitamin C, citric acid or N-acetylcysteine was prepared as 0.1 M concentration, and each test dish contained 5 ml test solution. Freshly cut banana peels 2×2 cm in sizes were immersed in 5 ml test solutions including known antioxidants and vehicle controls with pH at 7.0 and 4.0. […] The same results were also found for the known antioxidant substances; vitamin C, citric acid and N-acetylcysteine.

[7] = antioxidant property, anthralin test method; type: physicochemical
Text: as §1
Antioxidant property of an oligosaccharide aldonic acid may be determined by utilizing anthralin test method as follows.
Anthralin also known as dithranol is a yellowish powder, and a composition containing anthralin without a suitable antioxidant is chemically unstable even at room temperature. For example, anthralin 0.05% in an oil-in-water cream changed in color from yellow to gray within 24 hours at room temperature, and the cream became brownish within 48 hours. Under anhydrous condition, anthralin 0.05% ointment prepared from white petrolatum 2 parts and mineral oil 1 part by weight changed in color from bright yellow to grayish yellow within 24 hours, and the ointment became brownish after 12 days at room temperature.
Based on the above observations, an oil-in-water cream containing 0.4% anthralin with or without a known antioxidant was used as a positive or vehicle control.

[8] = by weight, 1 g acid in 1 ml water evaporated at room temperature

O=C(O)[C@H](O)[C@@H](O)[C@H](O[C@@H]1O[C@H](CO)[C@H](O)[C@H](O)[C@H]1O)[C@H](O)CO [lactobionic acid]
erythema of facial skin [1]: improved substantially and the erythema became less noticeable
gel matrix formation ([2]; 1 g in 1 ml water, 20-25° C., slow evaporation): clear continuous gel film was formed
acid content of the gel film [2, 8]: 86%
water retained in the gel film (gel matrix) [2, 8]: 14%
gum bleeding during tooth brushing [3]: gum bleeding stopped or became less noticeable
colour change of hydroquinone cream [4]: did not change color
wound healing ([5]; covered five days, end of one week, saline control not epithelialized): healed with re-epithelialization
time to disappearance of erythema ([5]; same at control site): nine
colour of banana peels ([6]; 24 hours): remained white-yellowish
colour of banana peels ([6]; after 72 hours): changed in color to tan
colour change of banana peels ([6]; 2×2 cm peels in 5 ml 0.1 M test solution, water control tan within 4 hours): did not change color
antioxidant grade ([7]; anthralin and hydroquinone test methods): moderate antioxidant
colour change of anthralin cream ([7]; oil-in-water cream, 0.4% anthralin, test substance 0.1 M, 24 hours): did not change the color
